Values quoted from earlier work in patent publication US20080021079A1, “Compounds, Compositions, and Methods” (priority 2003, published 2008).

Tested on: A549 cells

GI50 | Compound
1000 nM | O=c1[nH]cc(F)c(=O)[nH]1 [5-fluorouracil]
63 nM | COc1cccc2c1C(=O)c1c(O)c3c(c(O)c1C2=O)C[C@@](O)(C(=O)CO)C[C@@H]3O[C@H]1C[C@H](N)[C@H](O)[C@H](C)O1 [doxorubicin]
500000 nM | NC(=O)NO [hydroxyurea]
4 nM | CC(=O)O[C@H]1C(=O)[C@@]2(C)[C@H]([C@H](OC(=O)c3ccccc3)[C@]3(O)C[C@H](OC(=O)[C@H](O)[C@@H](NC(=O)c4ccccc4)c4ccccc4)C(C)=C1C3(C)C)[C@]1(OC(C)=O)CO[C@@H]1C[C@@H]2O [paclitaxel]
